In ChEMBL document CHEMBL3751686, “Novel benzoxepine-1,2,3-triazole hybrids: synthesis and pharmacological evaluation as potential antibacterial and anticancer agents” (Medchemcomm, 2015):
Values after ≈ are worked out from the molar mass of the structure shown. Active and inactive are the calls of the source. The rule behind the calls is not given here.

Assays:
[1] = Cytotoxicity against human HCT15 cells assessed as cell growth at 80 ug/ml after 48 hrs by SRB assay; assay type: functional; settings: HCT-15, 48 h, read-out: Activity
[2] = Cytotoxicity against human HCT15 cells after 48 hrs by SRB assay; assay type: functional; settings: HCT-15, 48 h; for CC50: read-out: LC50 (the source's name)
[3] = system: HEK293; assay: Cytotoxicity against HEK293 cells after 48 hrs by SRB assay; assay type: cell-based; settings: human, hek293, 48 h
[4] = system: Staphylococcus aureus; assay: Antibacterial activity against Staphylococcus aureus at 0.4 mg/50 uL incubated overnight by agar-well diffusion analysis; assay type: functional
[5] = system: Pseudomonas aeruginosa; assay: Antibacterial activity against Pseudomonas aeruginosa MTCC 6642 at 0.4 mg/50 uL incubated overnight by agar-well diffusion analysis; assay type: functional
[6] = system: NCI-H226; assay: Cytotoxicity against human NCI-H226 cells after 48 hrs by SRB assay; assay type: functional; settings: NCI-H226, 48 h
[7] = system: NCI-H226; assay: Cytotoxicity against human NCI-H226 cells assessed as cell growth at 80 ug/ml after 48 hrs by SRB assay; assay type: functional; settings: NCI-H226, 48 h, read-out: Activity
[8] = system: Escherichia coli; assay: Antibacterial activity against Escherichia coli MTCC 1563 at 0.4 mg/50 uL incubated overnight by agar-well diffusion analysis; assay type: functional
[9] = system: Klebsiella pneumoniae; assay: Antibacterial activity against Klebsiella pneumoniae at 0.4 mg/50 uL incubated overnight by agar-well diffusion analysis; assay type: functional
[10] = system: Staphylococcus aureus; assay: Antibacterial activity against Staphylococcus aureus at 0.04 mg/50 uL incubated overnight by agar-well diffusion analysis; assay type: functional
[11] = system: Klebsiella pneumoniae; assay: Antibacterial activity against Klebsiella pneumoniae at 0.04 mg/50 uL incubated overnight by agar-well diffusion analysis; assay type: functional
[12] = system: Pseudomonas aeruginosa; assay: Antibacterial activity against Pseudomonas aeruginosa MTCC 6642 at 0.04 mg/50 uL incubated overnight by agar-well diffusion analysis; assay type: functional
[13] = system: Escherichia coli; assay: Antibacterial activity against Escherichia coli MTCC 1563 at 0.04 mg/50 uL incubated overnight by agar-well diffusion analysis; assay type: functional

Row | SMILES | diameter of the inhibition zone (DIZ) [4] [mm] | diameter of the inhibition zone (DIZ) [5] [mm] | diameter of the inhibition zone (DIZ) [8] | diameter of the inhibition zone (DIZ) [9] | also measured
1 | Cc1ccc2c(c1)C(Cl)=C(Cn1cc(COc3ccc4ccc(=O)oc4c3)nn1)CCO2 | 10 | 18 | 16 mm |  | growth at 80 µg/mL [1]: 33%; GI50 [2]: 52.5 µg/mL (≈ 117 µM); TGI [2]: > 80 µg/mL; CC50 [2]: > 80 µg/mL; Activity [3]: Non-toxic; GI50 [6]: 41.3 µg/mL (≈ 91.8 µM); LC50 [6]: > 80 µg/mL; TGI [6]: > 80 µg/mL; growth at 80 µg/mL [7]: 8%
2 | ClC1=C(Cn2cc(COc3cccc4cccnc34)nn2)CCOc2ccc(Cl)cc21 | 12 | 10 | 10 mm | 12 mm | 
3 | ClC1=C(Cn2cc(-c3ccccc3)nn2)CCOc2ccccc21 | 7 | 13 | inactive | 18 mm | growth at 80 µg/mL [1]: 61%; Activity [3]: Non-toxic; growth at 80 µg/mL [7]: 73%
4 | Cc1ccc(-c2cn(CC3=C(Cl)c4cc(Cl)ccc4OCC3)nn2)cc1 |  | 12 | 13 mm | 10 mm | 
5 | O=c1ccc2ccc(OCc3cn(CC4=C(Cl)c5ccccc5OCC4)nn3)cc2o1 | 10 | 12 | inactive | 11 mm | 
6 | Cc1cccc2c1OCCC(Cn1cc(-c3ccccc3)nn1)=C2Cl |  | 11 | 25 mm | 9 mm | 
7 | Cc1cc(=O)oc2cc(OCc3cn(CC4=C(Cl)c5cc(Cl)ccc5OCC4)nn3)ccc12 | 12 | 18 | 14 mm |  | 
8 | Cc1ccc2c(c1)C(Cl)=C(Cn1cc(-c3ccccc3)nn1)CCO2 |  | 16 |  | 9 mm | 
9 | COc1cccc2c1C(=O)c1c(O)c3c(c(O)c1C2=O)C[C@@](O)(C(=O)CO)C[C@@H]3O[C@H]1C[C@H](N)[C@H](O)[C@H](C)O1 [DOXORUBICIN] |  |  |  |  | GI50 [2]: < 10 µg/mL; TGI [2]: 36.1 µg/mL (≈ 66.4 µM); CC50 [2]: > 80 µg/mL; GI50 [6]: < 10 µg/mL; TGI [6]: < 10 µg/mL
10 | Cc1ccc(-c2cn(CC3=C(Cl)c4cc(C)ccc4OCC3)nn2)cc1 | 8 | 10 | 10 mm |  | 
11 | Cc1cccc2c1OCCC(Cn1cc(COc3ccc4c(C)cc(=O)oc4c3)nn1)=C2Cl | 11 | 11 |  |  | 
12 | Cc1cc(=O)oc2cc(OCc3cn(CC4=C(Cl)c5ccccc5OCC4)nn3)ccc12 | 11 | 12 | 11 mm | 7 mm | 
13 | Cc1ccc(-c2cn(CC3=C(Cl)c4ccccc4OCC3)nn2)cc1 | 10 | 12 | 9 mm |  | growth at 80 µg/mL [1]: 55%; Activity [3]: Non-toxic
14 | ClC1=C(Cn2cc(COc3cccc4cccnc34)nn2)CCOc2ccccc21 | 8 |  | 11 mm | inactive | 
15 | Cc1ccc2c(c1)C(Cl)=C(Cn1cc(COc3ccc4c(C)cc(=O)oc4c3)nn1)CCO2 |  | 16 | inactive | 12 mm | 
16 | Cc1cccc2c1OCCC(Cn1cc(COc3cccc4cccnc34)nn1)=C2Cl | 10 | 18 |  |  | 
17 | CCn1cc(C(=O)O)c(=O)c2cc(F)c(N3CCN(C)CC3)cc21 [PEFLOXACIN] |  |  |  |  | diameter of the inhibition zone (DIZ) [10]: 36 mm; diameter of the inhibition zone (DIZ) [11]: 35 mm; diameter of the inhibition zone (DIZ) [12]: 28 mm; diameter of the inhibition zone (DIZ) [13]: 31 mm
18 | O=c1ccc2ccc(OCc3cn(CC4=C(Cl)c5cc(Cl)ccc5OCC4)nn3)cc2o1 | 10 | 11 | inactive | 12 mm | 
19 | Cc1cccc2c1OCCC(Cn1cc(COc3ccc4ccc(=O)oc4c3)nn1)=C2Cl | 12 | 14 |  | inactive | growth at 80 µg/mL [1]: 86%; Activity [3]: Non-toxic
20 | Cc1ccc(-c2cn(CC3=C(Cl)c4cccc(C)c4OCC3)nn2)cc1 | 7 | 15 | 20 mm | 17 mm | growth at 80 µg/mL [1]: 58%; Activity [3]: Non-toxic
